Assay results taken from paper PMC12406203 (Journal of Medicinal Chemistry, 2025).

Tests used:
Assay in all cases: KINOMEscan
Type in all cases: binding
[1] = target: T1, ADCK3 (Homo sapiens, UniProt Q8NI60)
T1 construct: purchased Eurofins DiscoverX, LLC; host or cells: E. coli BL21-derived (T7 phage) or HEK-293

[2] = target: T2, BRAF (Homo sapiens, UniProt P15056)
T2 construct: purchased Eurofins DiscoverX, LLC; host or cells: E. coli BL21-derived (T7 phage) or HEK-293

[3] = target: T3, CDK9 (Homo sapiens, UniProt P50750)
T3 construct: purchased Eurofins DiscoverX, LLC; host or cells: E. coli (T7 phage) or HEK-293

[4] = target: T4, CSNK1G2 (Homo sapiens, UniProt P78368)
T4 construct: purchased Eurofins DiscoverX, LLC; host or cells: E. coli (T7 phage) or HEK-293

[5] = target: T5, GSK3B (Homo sapiens, UniProt P49841)
T5 construct: purchased Eurofins DiscoverX, LLC; host or cells: E. coli (T7 phage) or HEK-293

[6] = target: T6, JNK2 (Homo sapiens, UniProt P45984)
T6 construct: purchased Eurofins DiscoverX, LLC; host or cells: E. coli (BL21-derived, T7 phage) or HEK-293

[7] = target: T7, MARK3 (Homo sapiens, UniProt P27448)
T7 construct: purchased Eurofins DiscoverX, LLC; host or cells: E. coli (BL21-derived, T7 phage) or HEK-293

[8] = target: T8, PIK3CA (Homo sapiens, UniProt P42336)
T8 construct: purchased Eurofins DiscoverX, LLC; host or cells: E. coli BL21-derived host (T7 phage) or HEK-293

[9] = target: T9, PLK4 (Homo sapiens, UniProt O00444)
T9 construct: purchased Eurofins DiscoverX, LLC; host or cells: E. coli BL21-derived host (T7 phage) or HEK-293
T9 sequence (O00444 1-970): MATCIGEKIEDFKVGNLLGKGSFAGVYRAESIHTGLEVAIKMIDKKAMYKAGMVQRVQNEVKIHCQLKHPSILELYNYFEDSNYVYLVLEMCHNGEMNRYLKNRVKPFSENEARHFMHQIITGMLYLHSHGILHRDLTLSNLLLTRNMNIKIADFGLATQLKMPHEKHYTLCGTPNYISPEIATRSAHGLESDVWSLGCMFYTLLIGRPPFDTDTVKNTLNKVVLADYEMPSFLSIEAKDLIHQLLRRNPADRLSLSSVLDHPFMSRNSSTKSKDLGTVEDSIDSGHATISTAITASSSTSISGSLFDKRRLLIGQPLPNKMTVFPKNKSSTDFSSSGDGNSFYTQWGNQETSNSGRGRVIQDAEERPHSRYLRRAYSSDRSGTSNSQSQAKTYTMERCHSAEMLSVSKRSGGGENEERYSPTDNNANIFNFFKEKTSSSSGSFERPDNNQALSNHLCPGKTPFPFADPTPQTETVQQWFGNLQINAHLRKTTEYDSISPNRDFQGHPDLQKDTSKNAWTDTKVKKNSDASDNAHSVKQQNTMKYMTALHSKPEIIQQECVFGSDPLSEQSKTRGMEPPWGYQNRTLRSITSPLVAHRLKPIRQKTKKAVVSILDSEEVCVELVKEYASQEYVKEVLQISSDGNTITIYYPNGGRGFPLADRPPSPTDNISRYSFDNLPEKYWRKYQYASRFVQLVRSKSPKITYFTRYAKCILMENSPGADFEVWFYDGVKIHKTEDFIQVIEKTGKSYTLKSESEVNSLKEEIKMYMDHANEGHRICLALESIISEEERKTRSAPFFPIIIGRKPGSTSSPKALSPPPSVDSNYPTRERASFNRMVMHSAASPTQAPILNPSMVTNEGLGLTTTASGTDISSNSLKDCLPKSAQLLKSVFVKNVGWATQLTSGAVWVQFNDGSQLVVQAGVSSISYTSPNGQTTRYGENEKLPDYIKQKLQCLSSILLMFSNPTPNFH

[10] = target: T10, TRKA (Homo sapiens, UniProt P04629)
T10 construct: purchased Eurofins DiscoverX, LLC; host or cells: E. coli BL21-derived host (T7 phage) or HEK-293

[11] = target: T11, TSSK1B (Homo sapiens, UniProt Q9BXA7)
T11 construct: purchased Eurofins DiscoverX, LLC; host or cells: E. coli BL21-derived host (T7 phage) or HEK-293
T11 sequence (Q9BXA7 1-367): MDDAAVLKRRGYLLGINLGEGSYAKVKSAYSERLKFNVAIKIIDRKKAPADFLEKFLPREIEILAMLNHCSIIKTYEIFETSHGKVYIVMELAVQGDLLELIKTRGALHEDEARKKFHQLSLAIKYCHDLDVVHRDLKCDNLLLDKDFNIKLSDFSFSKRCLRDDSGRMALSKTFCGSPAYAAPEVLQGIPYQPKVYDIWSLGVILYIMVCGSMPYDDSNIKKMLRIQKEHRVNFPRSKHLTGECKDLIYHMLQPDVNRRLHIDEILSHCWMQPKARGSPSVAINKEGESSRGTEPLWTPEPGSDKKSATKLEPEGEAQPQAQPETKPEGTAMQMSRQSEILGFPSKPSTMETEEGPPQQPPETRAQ

[12] = target: T12, YANK3 (Homo sapiens, UniProt Q86UX6)
T12 construct: purchased Eurofins DiscoverX, LLC; host or cells: E. coli BL21-derived host (T7 phage) or HEK-293

[13] = target: T13, p38β (Homo sapiens, UniProt Q15759)
T13 construct: purchased Eurofins DiscoverX, LLC; host or cells: E. coli (BL21-derived, T7 phage) or HEK-293
T13 sequence (Q15759 whole entry): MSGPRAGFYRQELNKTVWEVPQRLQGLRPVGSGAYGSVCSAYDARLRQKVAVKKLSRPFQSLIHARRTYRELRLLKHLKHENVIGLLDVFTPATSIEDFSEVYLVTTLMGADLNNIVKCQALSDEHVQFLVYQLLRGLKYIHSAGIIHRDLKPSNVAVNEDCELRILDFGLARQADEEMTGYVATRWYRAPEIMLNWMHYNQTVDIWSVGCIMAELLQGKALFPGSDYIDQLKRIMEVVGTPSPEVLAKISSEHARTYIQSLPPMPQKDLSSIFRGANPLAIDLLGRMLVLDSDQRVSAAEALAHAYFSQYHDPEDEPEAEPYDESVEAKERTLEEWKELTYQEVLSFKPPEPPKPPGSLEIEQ

T10 sequence (P04629 33-796): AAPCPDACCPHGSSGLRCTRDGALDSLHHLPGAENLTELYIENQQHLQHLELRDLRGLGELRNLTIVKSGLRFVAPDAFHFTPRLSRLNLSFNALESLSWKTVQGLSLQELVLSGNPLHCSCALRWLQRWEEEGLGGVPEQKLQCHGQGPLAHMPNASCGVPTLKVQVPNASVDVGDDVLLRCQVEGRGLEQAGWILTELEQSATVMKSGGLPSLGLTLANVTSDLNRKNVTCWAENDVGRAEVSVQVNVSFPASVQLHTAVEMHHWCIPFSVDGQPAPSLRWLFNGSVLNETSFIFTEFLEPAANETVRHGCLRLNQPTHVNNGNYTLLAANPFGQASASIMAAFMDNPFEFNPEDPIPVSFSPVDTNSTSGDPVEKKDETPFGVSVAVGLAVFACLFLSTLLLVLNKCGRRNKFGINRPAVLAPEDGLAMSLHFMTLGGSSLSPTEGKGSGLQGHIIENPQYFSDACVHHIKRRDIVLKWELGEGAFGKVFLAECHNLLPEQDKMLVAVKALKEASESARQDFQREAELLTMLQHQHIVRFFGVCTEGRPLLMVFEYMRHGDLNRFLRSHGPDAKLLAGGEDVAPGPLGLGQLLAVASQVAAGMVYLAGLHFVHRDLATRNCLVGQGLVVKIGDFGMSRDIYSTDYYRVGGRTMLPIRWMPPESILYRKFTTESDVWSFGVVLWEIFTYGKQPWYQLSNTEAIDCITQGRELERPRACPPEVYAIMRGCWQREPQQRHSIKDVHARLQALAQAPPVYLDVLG
T8 sequence (P42336 whole entry): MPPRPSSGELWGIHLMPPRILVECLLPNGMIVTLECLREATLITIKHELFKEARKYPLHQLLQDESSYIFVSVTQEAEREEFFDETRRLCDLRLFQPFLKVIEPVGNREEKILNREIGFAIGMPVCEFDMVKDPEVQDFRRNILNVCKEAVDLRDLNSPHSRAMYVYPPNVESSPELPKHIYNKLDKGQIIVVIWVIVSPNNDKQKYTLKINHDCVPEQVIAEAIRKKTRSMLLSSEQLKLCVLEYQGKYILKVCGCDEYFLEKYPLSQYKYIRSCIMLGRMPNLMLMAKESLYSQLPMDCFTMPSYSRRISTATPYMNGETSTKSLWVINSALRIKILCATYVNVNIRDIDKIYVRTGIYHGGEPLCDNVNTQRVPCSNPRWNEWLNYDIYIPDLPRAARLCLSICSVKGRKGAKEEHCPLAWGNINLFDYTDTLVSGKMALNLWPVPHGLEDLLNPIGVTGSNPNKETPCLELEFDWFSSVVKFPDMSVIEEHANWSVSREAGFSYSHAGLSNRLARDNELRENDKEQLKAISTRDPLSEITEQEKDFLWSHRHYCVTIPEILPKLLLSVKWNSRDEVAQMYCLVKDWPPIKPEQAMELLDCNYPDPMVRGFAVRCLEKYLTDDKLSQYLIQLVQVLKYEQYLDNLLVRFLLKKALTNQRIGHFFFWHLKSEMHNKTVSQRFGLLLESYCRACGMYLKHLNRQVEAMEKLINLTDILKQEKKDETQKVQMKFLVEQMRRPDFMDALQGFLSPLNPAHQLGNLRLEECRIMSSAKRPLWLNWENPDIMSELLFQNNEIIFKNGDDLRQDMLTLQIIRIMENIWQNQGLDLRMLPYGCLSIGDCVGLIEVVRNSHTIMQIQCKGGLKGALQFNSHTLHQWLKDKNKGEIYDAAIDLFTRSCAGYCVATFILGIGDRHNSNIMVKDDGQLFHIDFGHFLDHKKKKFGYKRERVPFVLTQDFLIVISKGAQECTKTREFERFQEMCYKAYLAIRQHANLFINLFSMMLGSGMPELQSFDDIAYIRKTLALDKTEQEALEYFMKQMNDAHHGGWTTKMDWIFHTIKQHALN
T5 sequence (P49841 whole entry): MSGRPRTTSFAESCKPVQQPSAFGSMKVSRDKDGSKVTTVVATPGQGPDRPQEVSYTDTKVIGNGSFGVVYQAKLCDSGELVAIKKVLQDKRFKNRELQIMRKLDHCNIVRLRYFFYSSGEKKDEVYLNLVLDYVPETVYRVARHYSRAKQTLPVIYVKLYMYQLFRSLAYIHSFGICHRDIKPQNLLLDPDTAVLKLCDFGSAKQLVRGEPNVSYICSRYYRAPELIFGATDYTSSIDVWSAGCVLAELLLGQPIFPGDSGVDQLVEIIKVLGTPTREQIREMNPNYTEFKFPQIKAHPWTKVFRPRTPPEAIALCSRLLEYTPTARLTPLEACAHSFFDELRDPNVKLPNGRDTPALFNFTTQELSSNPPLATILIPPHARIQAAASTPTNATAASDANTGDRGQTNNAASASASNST
T12 sequence (Q86UX6 whole entry): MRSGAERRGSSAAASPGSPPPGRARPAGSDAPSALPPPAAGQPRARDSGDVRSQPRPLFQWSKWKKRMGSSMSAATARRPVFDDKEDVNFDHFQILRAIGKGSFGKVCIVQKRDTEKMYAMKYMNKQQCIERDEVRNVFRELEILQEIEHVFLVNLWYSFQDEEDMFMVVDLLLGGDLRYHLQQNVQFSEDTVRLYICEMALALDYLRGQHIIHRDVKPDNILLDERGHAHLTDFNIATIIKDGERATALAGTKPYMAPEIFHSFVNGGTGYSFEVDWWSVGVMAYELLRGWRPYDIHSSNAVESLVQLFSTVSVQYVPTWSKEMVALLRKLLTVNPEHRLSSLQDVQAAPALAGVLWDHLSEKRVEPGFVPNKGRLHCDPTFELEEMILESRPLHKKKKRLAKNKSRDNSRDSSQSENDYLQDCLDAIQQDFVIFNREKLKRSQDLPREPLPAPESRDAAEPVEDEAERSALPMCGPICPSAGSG
T4 sequence (P78368 whole entry): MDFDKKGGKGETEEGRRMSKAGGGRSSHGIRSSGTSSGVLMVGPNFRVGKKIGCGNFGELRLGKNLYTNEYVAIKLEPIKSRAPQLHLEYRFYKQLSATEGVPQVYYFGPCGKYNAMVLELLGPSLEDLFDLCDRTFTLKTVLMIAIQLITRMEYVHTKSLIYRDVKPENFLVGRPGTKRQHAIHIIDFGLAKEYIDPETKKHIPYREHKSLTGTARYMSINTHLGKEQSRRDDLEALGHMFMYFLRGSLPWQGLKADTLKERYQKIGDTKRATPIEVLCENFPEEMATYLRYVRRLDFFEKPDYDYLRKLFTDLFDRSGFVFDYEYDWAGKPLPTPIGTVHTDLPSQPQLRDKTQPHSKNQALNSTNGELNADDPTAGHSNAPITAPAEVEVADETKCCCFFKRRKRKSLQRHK
T3 sequence (P50750 whole entry): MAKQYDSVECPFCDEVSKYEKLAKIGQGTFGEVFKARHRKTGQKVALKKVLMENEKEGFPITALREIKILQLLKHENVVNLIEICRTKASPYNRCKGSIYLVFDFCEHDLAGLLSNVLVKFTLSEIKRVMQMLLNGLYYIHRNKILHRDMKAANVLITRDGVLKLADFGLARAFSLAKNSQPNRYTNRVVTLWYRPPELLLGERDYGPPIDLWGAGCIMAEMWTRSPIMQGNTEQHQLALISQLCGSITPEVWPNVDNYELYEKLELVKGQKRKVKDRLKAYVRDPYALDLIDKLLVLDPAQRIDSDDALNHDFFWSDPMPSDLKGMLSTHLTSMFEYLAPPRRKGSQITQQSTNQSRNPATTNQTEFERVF
T6 sequence (P45984 whole entry): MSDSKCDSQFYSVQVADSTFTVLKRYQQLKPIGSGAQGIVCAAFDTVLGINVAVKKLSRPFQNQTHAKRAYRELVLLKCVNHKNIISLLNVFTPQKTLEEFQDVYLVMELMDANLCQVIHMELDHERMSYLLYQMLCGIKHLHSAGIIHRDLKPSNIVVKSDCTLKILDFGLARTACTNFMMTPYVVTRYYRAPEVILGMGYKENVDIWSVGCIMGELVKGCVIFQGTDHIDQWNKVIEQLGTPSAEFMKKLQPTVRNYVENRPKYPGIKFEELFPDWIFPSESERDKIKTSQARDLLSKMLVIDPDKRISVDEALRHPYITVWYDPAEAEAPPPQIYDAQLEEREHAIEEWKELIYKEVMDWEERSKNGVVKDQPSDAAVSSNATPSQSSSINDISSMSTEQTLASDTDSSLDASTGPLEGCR
T1 sequence (Q8NI60 163-647): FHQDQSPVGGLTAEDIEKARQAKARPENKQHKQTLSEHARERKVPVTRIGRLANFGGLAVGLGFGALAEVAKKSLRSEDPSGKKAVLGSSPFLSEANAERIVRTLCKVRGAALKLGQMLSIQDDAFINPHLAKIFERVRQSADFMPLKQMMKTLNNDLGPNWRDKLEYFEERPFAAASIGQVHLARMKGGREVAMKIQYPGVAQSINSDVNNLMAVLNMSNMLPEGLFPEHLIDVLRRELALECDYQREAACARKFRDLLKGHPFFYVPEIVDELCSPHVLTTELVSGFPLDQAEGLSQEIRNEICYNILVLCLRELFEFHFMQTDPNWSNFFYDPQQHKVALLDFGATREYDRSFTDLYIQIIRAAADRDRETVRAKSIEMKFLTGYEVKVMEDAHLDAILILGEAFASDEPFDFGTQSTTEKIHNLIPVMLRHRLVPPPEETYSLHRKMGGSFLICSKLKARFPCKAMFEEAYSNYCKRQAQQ

SMILES	RA @ 1000nM [1]	RA @ 10000nM [1]	RA @ 1000nM [2]	RA @ 10000nM [2]	RA @ 1000nM [3]	RA @ 10000nM [3]	RA @ 1000nM [4]	RA @ 10000nM [4]	RA @ 1000nM [5]	RA @ 10000nM [5]	RA @ 1000nM [6]	RA @ 10000nM [6]	RA @ 1000nM [7]	RA @ 10000nM [7]	RA @ 1000nM [8]	RA @ 10000nM [8]	RA @ 1000nM [9]	RA @ 10000nM [9]	RA @ 1000nM [10]	RA @ 10000nM [10]	further results
CN(C)CCNC(=O)c1cc2c(cnn2CC2CCCCC2)cc1Cc1ccc(F)cc1F [Compound 95, 1-(Cyclohexylmethyl)-5-(2,4-difluorobenzyl)-N-(2-(dimethylamino)ethyl)-1H-indazole-6-carboxamide]	100%	81%	100%	100%	100%	93%	100%	98%	100%	80%	44%	3.8%	79%	86%	100%	100%	100%	100%	100%	92%	RA @ 1000nM [11]: 100%; RA @ 10000nM [11]: 79%; RA @ 1000nM [12]: 100%; RA @ 10000nM [12]: 100%; RA @ 1000nM [13]: 84%; RA @ 10000nM [13]: 18%
CC(C)Cn1ncc2cc(Cc3ccc(F)cc3F)c(C(=O)NCCN(C)C)cc21 [Compound 94, 5-(2,4-Difluorobenzyl)-N-(2-(dimethylamino)ethyl)-1-isobutyl-1H-indazole-6-carboxamide]	100%	100%	100%	100%	100%	100%	96%	93%	91%	97%	52%	8.3%	100%	100%	77%	95%	100%	100%	98%	94%	RA @ 1000nM [11]: 77%; RA @ 10000nM [11]: 89%; RA @ 1000nM [12]: 100%; RA @ 10000nM [12]: 100%; RA @ 1000nM [13]: 72%; RA @ 10000nM [13]: 15%
